This passage reports TGI and GI50 results from PubChem BioAssay (NCI).

Holding throughout (assay): NCI tumour cell line growth inhibition, 48 h
Assay [1] deals with RXF-631 renal.
Assay [2] deals with XF 498 CNS.
The test system of assay [3] is HOP-18 NSCLC.
Assay [4] has as its system DLD-1 colon.
The test system of assay [5] is KM20L2 colon.
The subject of assay [6] is SNB-78 CNS.
Assay [7] has as its system LXFL 529 NSCLC.
Assay [8] has as its system MDA-N.
For assay [9], the system named is DMS 114 small cell lung.
For assay [10], the system named is SN12K1 renal.
Assay [11] relates to P388 leukemia.
The subject of assay [12] is P388/ADR leukemia.

Several values for one entry are separate records, joined by “and”; a condition that tells them apart may be missing. Identical values can stand only once.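 Following 48 hours of exposure in 96-well plates, responses at five concentrations were used to interpolate endpoints linearly. GI50 is the concentration that inhibits growth by half. TGI: concentration producing complete growth inhibition.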

On to `Cc1cn(C2C=CC(=O)C(C)O2)c(=O)[nH]c1=O` (configuration not stated), for which the TGI in [1] came to 28.5 µM; in assay [2], 26.4 µM; in assay [3] it was 28.5 µM; in assay [4], 29.7 µM; in assay [5], 30.2 µM; in [6], 35.4 µM. In addition, the TGI in assay [7] turned out to be 28.1 µM.
Turning to `O=C1C[C@@H](c2ccccc2)NCCCCN(O)CCCN1`, the TGI in assay [8] is > 100 µM.
On to `COc1cc(NCC(C#N)C#N)ccc1N=Nc1ccc([N+](=O)[O-])cc1`, for which the TGI in assay [1], in [3], in assay [4], in assay [5], in assay [6] and in [9] was > 100 µM in each case. For the same compound, the TGI in assay [7] was > 100 µM.
In the case of `Cn1cc2ccccc2c1-c1nc(F)nc(Oc2ccc3c(c2)CC[C@@H]2C3CC[C@]3(C)C(O)CCC23)n1` (some centres not stated), the TGI in [3] is 35.7 µM; in [4], 30.9 µM; in [5] it was 36.9 µM; in assay [6], 36.1 µM; in assay [9] it was 37.8 µM; in [7], 31.6 µM.
As to `CSC(=S)N(C)NC(=O)c1cccc(C(=O)NN(C)C(=S)SC)n1`, the TGI is > 100 µM in assay [3]; > 100 µM in assay [4]; > 100 µM in assay [5]; > 100 µM in assay [6]; 17 µM in assay [9]; > 100 µM in [7].
Turning to `O=C(N/C(=C\c1ccc([N+](=O)[O-])cc1)c1nc2[nH]c(=S)[nH]c(=O)c2[nH]1)c1ccccc1`, the TGI in assay [2], in [4], in [5], in [6], in [9] and in assay [7] was > 100 µM in each case.
On to `COc1cc(C2[C@H]3C(=O)N(c4ccc(Cc5ccc(N6C(=O)[C@@H]7ON(c8ccccc8)C(c8cc(OC)c(OC)c(OC)c8)[C@@H]7C6=O)cc5)cc4)C(=O)[C@H]3ON2c2ccccc2)cc(OC)c1OC` (some centres not stated), for which the TGI in [1], in [3], in assay [4], in [5], in assay [6] and in assay [9] was > 100 µM in each case.
For the compound `O=C(CCCn1ccnc1[N+](=O)[O-])NCCn1cnc([N+](=O)[O-])c1`, in assay [8], the TGI is > 100 µM.
For `COC1=NN2C(OC)(c3ccccc3)c3c(-c4ccccc4)sc(-c4ccccc4)c3C2(c2ccccc2)S1` (configuration not stated), the TGI in assay [1], in [2], in assay [4], in assay [6] and in assay [7] was > 100 µM throughout.
Turning to `CSc1nc2c(nc(N)n2C2OCC(O)C(O)C2O)c(=O)[nH]1` (configuration not stated), the TGI in assay [1], in [2], in [3], in assay [4], in [5] and in assay [6] was > 100 µM each time. Also, the TGI in assay [9] and in assay [7] was > 100 µM in each case.
Turning to `CC1OC(OC2C(OC3C[C@@]4(C)C(C[C@H](O)[C@H]5[C@H](C6(C)CCC(C(C)(C)O)O6)CCC54C)[C@]4(C)CC[C@@H](O)C(C)(C)C34)OC(CO)C(O)C2O)C(O)C(O)C1O` (some centres not stated) (tested in a mixture with another compound), the TGI in assay [8] is > 100 µM.
Consider `CC(C)C(/C=C/c1ccccc1)=N\NC(=O)N/N=C(/C=C/c1ccccc1)C(C)C`, for which the TGI in assay [2] was 77.4 µM; in [4] it was > 100 µM; in [5], 93.6 µM; in assay [6], > 100 µM; in assay [9], 60.1 µM; in assay [7], 75.3 µM.
`COc1ccc(S(=O)(=O)O)cc1NS(=O)(=O)c1ccc(C)cc1`: the TGI in [8] was > 100 µM.
As to `CCC[CH2][Sn]1([CH2]CCC)[O]C(=O)C[S]1`, the GI50 was 0.85 µM in assay [1]; 1.41 µM in assay [2]; 1.57 µM in assay [3]; 1.29 µM in assay [4]; 4.06 µM in assay [5]; 1.17 µM in [6]. Also, the GI50 was 1.29 µM in [9] and 0.312 µM in [7]. In addition, the TGI in assay [1] turned out to be 5.05 µM; in assay [2] it was 2.74 µM; in assay [3] it was 2.91 µM; in assay [4], 2.78 µM; in assay [5], 15.9 µM; in assay [6], 4.14 µM. Further, the results for the TGI in assay [9] and in assay [7] were 4.08 µM and 1.55 µM, respectively.
As to `CC1(C)CCc2cc3c(cc2O1)OC(C)(C)C1c2c(ccc4c2CCC(C)(C)O4)OC31` (configuration not stated), the TGI in [2], in [4], in assay [6], in assay [9] and in [7] was > 100 µM in each case.
On to `O=C1c2cnccc2Cc2cccc3c2N1c1ccccc1S3`, for which the TGI is > 100 µM in assay [1]; 32.6 µM in assay [2]; > 100 µM in [4]; 34.8 µM in assay [5]; 73.6 µM in [9]; > 100 µM in assay [7].
Regarding `CCOC(=O)CNC(SC)=C(C#N)C#N`, the TGI in [2], in assay [4], in [5], in assay [6], in [9] and in assay [7] was > 100 µM each time.
Turning to `COc1cc2c(c3oc(-c4ccc5c(c4)OCO5)c(O)c(=O)c13)CCC(C)(C)O2`, the TGI in assay [1], in assay [3], in [4], in assay [6], in assay [9] and in assay [7] was > 100 µM throughout.
As to `C#CCOCn1cnc2ncnc(Cl)c21`, the TGI in assay [1], in assay [2], in assay [3], in [4], in [5] and in assay [6] was > 100 µM throughout. Besides, the TGI in assay [9] and in [7] was > 100 µM each time.
As for `CCN(CC)C(=O)c1c(N2CCOCC2)cc(N(CC)CC)oc1=O`, the TGI in assay [2], in assay [3], in assay [4], in assay [5], in [6] and in [9] was > 100 µM throughout. The TGI in assay [7] was > 100 µM.
Take `CSc1nc(Cl)c(Br)c(Nc2c[nH]c(=O)[nH]c2=O)n1`: the TGI in [8] came out at 46.9 µM.
As for `CC(C)O/C=C1\C(=O)C2(SCCS2)[C@H]2CCCC[C@@H]12`, the TGI in [1], in assay [3], in assay [4], in [5], in [6] and in assay [7] was > 100 µM in each case.
As to `CC1=C(C(=O)Nc2ccccc2C)C(c2ccc(N(C)C)cc2)C(C(=O)Nc2ccccc2C)=C(C)N1`, the TGI in assay [1], in assay [2], in assay [4], in assay [5] and in assay [9] was > 100 µM each time.
For the compound `COc1ccc(-c2cc(-c3ccccc3)c(C#N)c(=O)[nH]2)cc1`, the TGI in assay [1], in assay [3], in assay [4], in [5], in [6] and in assay [9] was > 100 µM in each case. In addition, the TGI in assay [7] is > 100 µM.
As for `COc1ccc2oc(-c3ccncc3)cc(=O)c2c1`, the TGI in assay [1], in assay [2], in [4], in assay [9] and in [7] was > 100 µM each time.
As for `CCCNC(=O)c1cc2ccccc2cc1C(=O)OC`, the TGI in assay [1], in assay [2], in [3], in assay [4], in assay [5] and in assay [6] was > 100 µM each time. For the same compound, the TGI in assay [9] and in [7] was > 100 µM in each case.
With `NNC(=O)CC(=O)Nc1ccccc1F`, the TGI in [1], in assay [3], in [4], in assay [5], in assay [6] and in [9] was > 100 µM in each case. For the same compound, the TGI in [7] was > 100 µM.
For `COc1cc(C)c(C(=O)/C=C/c2cc(OC)c(O)c(OC)c2)cc1O`, the TGI was 59.8 µM in assay [1]; 30.7 µM in assay [2]; 35.1 µM in assay [4]; 57.6 µM in assay [5]; > 100 µM in assay [6]; 72.3 µM in assay [9]. Besides, the TGI in assay [7] was 40.3 µM.
As for `CC[C@](O)(C(=O)O)c1cc2n(c(=O)c1CO)Cc1cc3ccccc3nc1-2`, the TGI in assay [1] is 1.04 µM; in assay [10] it was 2.73 µM; in [2] it was 4.41 µM and 0.793 µM; in [3], 4.88 µM; in [4] it was 30 µM; in assay [5], 3.96 µM. In addition, the TGI was 0.605 µM in assay [8]; 0.294 µM in [11]; 1.11 µM and 0.412 µM in [9]; 25.6 µM in assay [12]. The GI50 in [2] was 0.614 µM; in assay [4], 0.311 µM and 0.337 µM; in assay [5] it was 0.209 µM; in assay [6], 0.242 µM and 0.135 µM.
Turning to `N#Cc1cc2cc3c4c(c2oc1=O)CCCN4CCC3`, the TGI in assay [8] is > 100 µM.
As for `CC1SC2=NC3=C(c4ccccc4C3=O)C(c3ccc(Br)cc3)N2C1=O` (configuration not stated), the TGI in assay [2], in [4], in assay [5], in assay [9] and in assay [7] was > 100 µM throughout.
As to `O=C1Cc2ccccc2N1/N=C\c1ccc(O)cc1`, the TGI in [1], in assay [2], in assay [3], in [5], in [6] and in assay [9] was > 100 µM each time.
Regarding `CCOC(=O)c1c(-c2[nH]c(C(=O)OCc3ccccc3)c(C)c2C(=O)OCC)[nH]c(C(=O)OCc2ccccc2)c1C`, the TGI in assay [3], in assay [4], in assay [5], in assay [6], in assay [9] and in assay [7] was > 100 µM throughout.
Compound `COc1cc(C/C=C/c2ccccc2)c(OC)cc1O` gave a TGI in assay [8] of 33.8 µM.
Turning to `O=C1c2c(c3c4ccccc4n4c3c3c2c2ccccc2n3C/C=C\C4)C(=O)N1Cc1ccccc1`, the TGI in assay [2] was 85.9 µM; in assay [3], > 100 µM; in [4], > 100 µM; in assay [5] it was > 100 µM; in assay [7], > 100 µM.
For the compound `Cn1c2ccccc2c2cc(-c3ccccc3)c3c(c21)C(=O)C=CC3=O`, the TGI in assay [1] is > 100 µM; in assay [2] it was 32.1 µM; in assay [4], 27.7 µM; in assay [8], 41.8 µM; in [6], > 64.8 µM; in assay [9], 19.8 µM. In [7], the TGI is 18.6 µM.
For `CC(=O)Nc1ccc(-c2nnc(SCC(=O)Nc3ccccc3[N+](=O)[O-])o2)cc1`, the TGI in assay [3], in assay [4], in assay [5], in [6], in assay [9] and in assay [7] was > 100 µM throughout.
